In patent publication US9295255B2, “Use of dithiine derivatives in crop protection and the protection of materials” (Bayer Intellectual Property GmbH, priority 2010, dated 2016):

Legend:
Alternaria solani = assay: Alternaria test (tomato)/protective; format: in vivo; settings: young tomato plants sprayed, 1500 ppm, protective; evaluation 7 days following inoculation; 0% = control, 100% = no infestation
Phytophthora infestans = format: in vivo; settings: young tomato plants sprayed, 1500 ppm, protective; evaluation 7 days following inoculation; 0% = control, 100% = no infestation
[1] = log P determination by HPLC on reversed-phase column (EEC Directive 79/831 Annex V.A8); format: physicochemical; settings: reversed-phase C18 HPLC column, reversed-phase C 18, 43° C., acidic range pH 2.7, 0.1% aqueous formic acid/acetonitrile
Description: The log P values reported in the preparation examples and tables above are determined in accordance with EEC Directive 79/831 Annex V.A8 by means of HPLC (High Performance Liquid Chromatography) on a reversed-phase column (C 18). Temperature: 43° C.
The determination with the LC-MS in the acidic range takes place at a pH of 2.7 using 0.1% aqueous formic acid and acetonitrile (containing 0.1% formic acid) as eluents: linear gradient from 10% acetonitrile to 95% acetonitrile.
Calibration takes place using unbranched alkan-2-ones (having 3 to 16 carbon atoms) of which the log P values are known (log P values determined on the basis of the retention times, by linear interpolation between two successive alkanones).

Botrytis cinerea = assay: Botrytis test (bean)/protective; format: in vivo; settings: young bean plants sprayed, 500 ppm, protective; size of infestation spots 2 days following inoculation; 0% = control, 100% = no infestation
From the text: An appropriate preparation of active compound is produced by mixing 1 part by weight of active compound with the stated amounts of solvent and emulsifier and diluting the concentrate with water to the desired concentration. To test for protective activity, young plants are sprayed with the preparation of active compound at the stated application rate. After the spray coating has dried on, 2 small pieces of agar on which Botrytis cinerea is growing are placed on each leaf. The inoculated plants are placed in a darkened chamber at approximately 20° C. and 100% relative humidity. After 2 clays following inoculation, the size of the infestation spots on the leaves is evaluated. Here, 0% denotes an efficacy which corresponds to that of the control, whereas an efficacy of 100% means that no infestation is observed.

Plasmopara viticola = assay: Plasmopara test (grapevine)/protective; format: in vivo; settings: young grapevine plants sprayed, 250 ppm, protective; evaluation 6 days following inoculation; 0% = control, 100% = no infestation
From the text: (§1) An appropriate preparation of active compound is produced by mixing 1 part by weight of active compound with the stated amounts of solvent and emulsifier and diluting the concentrate with water to the desired concentration. To test for protective activity, young plants are sprayed with the preparation of active compound at the stated application rate. After the spray coating has dried on, the plants are inoculated with an aqueous spore suspension of Plasmopara viticola and then spend 1 day in an incubation cabin at approximately 20° C. and 100% relative humidity. Subsequently the plants are placed for 4 days in a greenhouse at approximately 21° C. and approximately 90% humidity. The plants are then moistened and placed in an incubation cabin for 1 day. After 6 days following inoculation, evaluation takes place. Here, 0% denotes an efficacy which corresponds to that of the control, whereas an efficacy of 100% means that no infestation is observed.

Venturia inaequalis = assay: Venturia test (apple)/protective; format: in vivo; settings: young apple plants sprayed, 250 ppm, protective; evaluation 10 days following inoculation; 0% = control, 100% = no infestation
From the text: as §1, with “conidia” for “spore”, “the causative organism of apple scab, Venturia inaequalis,” for “Plasmopara viticola”, “placed” for “placed for 4 days”, “humidity.” for “humidity. The plants are then moistened and placed in an incubation cabin for 1 day.”, “10 clays” for “6 days”

Row | Structure (SMILES) | Efficacy in % (Alternaria solani) [%] | Efficacy in % (Phytophthora infestans) [%] | chromatographic logP [1] | Efficacy in % (Botrytis cinerea) [%] | Efficacy in % (Plasmopara viticola) [%] | Efficacy in % (Venturia inaequalis) [%]
1 | Cc1c(C)c(=O)c2sc(C#N)c(C#N)sc=2c1=O [Compound 43, 6,7-dimethyl-5,8-dioxo-5,8-dihydro-1,4-benzodithiine-2,3-dicarbonitrile] | 100 | – | – | – | – | –
2 | COc1c(Cl)c(=O)c2sc(C#N)c(C#N)sc=2c1=O [Compound 44, 6-chloro-7-methoxy-5,8-dioxo-5,8-dihydro-1,4-benzodithiine-2,3-dicarbonitrile] | 100 | – | – | – | – | –
3 | CC(C)(C)c1cc(=O)c2sc(C#N)c(C#N)sc=2c1=O [Compound 45, 6-tert-butyl-5,8-dioxo-5,8-dihydro-1,4-benzodithiine-2,3-dicarbonitrile] | – | 78 | – | – | – | –
4 | Cc1c(C)c(O)c2c(c1O)SC(C#N)=C(C#N)S2 [Compound 47, 5,8-dihydroxy-6,7-dimethyl-1,4-benzodithiine-2,3-dicarbonitrile] | 100 | 89 | 2.26 | 100 | 92 | 100
5 | COc1c(O)c2c(c(O)c1Cl)SC(C#N)=C(C#N)S2 [Compound 48, 6-chloro-5,8-dihydroxy-7-methoxy-1,4-benzodithiine-2,3-dicarbonitrile] | 100 | 94 | 2.19 | 97 | 90 | 100
6 | CC(C)(C)c1cc(O)c2c(c1O)SC(C#N)=C(C#N)S2 [Compound 49, 6-tert-butyl-5,8-dihydroxy-1,4-benzodithiine-2,3-dicarbonitrile] | 100 | 94 | 2.95 | 96 | 92 | 100
